Measurements: patent US6506780B2, “Benzophenones and sulfones as inhibitors of glycine uptake” (Pfizer Inc., priority 2000, dated 2003)
Counter-ions that a name gives are not always drawn.

Columns and labels:
NMDA receptor = conditions: effect blocked by a specific NMDA-site antagonist and a glycine-site antagonist; cited from earlier work

| SMILES | melting point [°C] | post synaptic current driven by the NMDA receptor (NMDA receptor) |
| --- | --- | --- |
| CN(CCC(Oc1ccc(C(=O)c2c(F)cccc2F)cc1)c1ccc(F)cc1)CC(=O)O (stereo not shown) (as salt: salt) | 77 to 87 |  |
| Cc1cccnc1C(=O)c1ccc(OC(CCN(C)CC(=O)O)c2ccc(F)cc2)cc1 (stereo not shown) (as salt: salt) | 65 to 73 |  |
| CN(CCC(Oc1ccc(C(=O)c2ccc(Cl)cc2)cc1)c1ccc(F)cc1)CC(=O)O (stereo not shown) (as salt: salt) | 71 to 85 |  |
| CN(CCC(Oc1ccc(C(=O)c2ccc(F)cc2F)cc1)c1ccc(F)cc1)CC(=O)O (stereo not shown) (as salt: salt) | 65 to 75 |  |
| CN(CCC(Oc1ccc(C(=O)c2cccc3ccccc23)cc1)c1ccc(F)cc1)CC(=O)O (stereo not shown) (as salt: salt) | 91 to 100 |  |
| CN(CCC(Oc1ccc(C(=O)c2ccncc2)cc1)c1ccc(F)cc1)CC(=O)O (stereo not shown) (as salt: salt) | 52 to 65 |  |
| Cc1ccc(C(=O)c2ccc(OC(CCN(C)CC(=O)O)c3ccc(F)cc3)cc2)cc1 (stereo not shown) (as salt: salt) | 60 to 70 |  |
| Cc1ccc(C(=O)c2ccc(OC(CCN(C)CC(=O)O)c3ccc(F)cc3)cc2)nc1 (stereo not shown) | 55 to 65 |  |
| Cc1ccc(C(=O)c2ccc(OC(CCN(C)CC(=O)O)c3ccc(Cl)cc3)cc2)cc1 (stereo not shown) (as salt: salt) | 65 to 71 |  |
| CC(C)c1ccc(C(=O)c2ccc(OC(CCN(C)CC(=O)O)c3ccc(F)cc3)cc2)cc1 (stereo not shown) (as salt: salt) | 70 to 80 |  |
| CN(CCC(Oc1ccc(C(=O)c2ccccn2)cc1)c1ccc(F)cc1)CC(=O)O (stereo not shown) (as salt: salt) | 68 to 80 |  |
| CN(CCC(Oc1ccc(C(=O)c2ccccc2F)cc1)c1ccc(F)cc1)CC(=O)O (stereo not shown) (as salt: salt) | 65 to 75 |  |
| CN(CCC(Oc1ccc(C(=O)c2nccs2)cc1)c1ccc(F)cc1)CC(=O)O (stereo not shown) (as salt: salt) | 98 to 108 |  |
| Cc1cccc(C(=O)c2ccc(OC(CCN(C)CC(=O)O)c3ccc(Cl)cc3)cc2)c1C (stereo not shown) (as salt: salt) | 85 to 93 |  |
| CN(CCC(Oc1ccc(C(=O)c2ccc3ccccc3c2)cc1)c1ccccc1)CC(=O)O (stereo not shown) (as salt: salt) | 77 to 89 |  |
| Cc1cnc(C(=O)c2ccc(OC(CCN(C)CC(=O)O)c3ccc(F)cc3)cc2)s1 (stereo not shown) (as salt: salt) | 95 to 110 |  |
| Cc1ccc(C(=O)c2ccc(OC(CCN(C)CC(=O)O)c3ccccc3)cc2)cc1 (stereo not shown) (as salt: salt) | 85 to 95 |  |
| CN(CCC(Oc1ccc(C(=O)c2ccsc2)cc1)c1ccc(F)cc1)CC(=O)O (stereo not shown) (as salt: salt) | 65 to 75 |  |
| CN(CCC(Oc1ccc(C(=O)c2ccc(Cl)cc2)cc1)c1ccc(Cl)cc1)CC(=O)O (stereo not shown) (as salt: salt) | 63 to 68 |  |
| CN(CCC(Oc1ccc(C(=O)c2ccc(C(F)(F)F)cc2)cc1)c1ccccc1)CC(=O)O (stereo not shown) (as salt: salt) | 65 to 83 |  |
| CN(CCC(Oc1cccc(C(=O)c2ccncc2)c1)c1ccc(Cl)cc1)CC(=O)O (stereo not shown) | 68 to 78 |  |
| Cc1cccc(C(=O)c2ccc(OC(CCN(C)CC(=O)O)c3ccc(F)cc3)cc2)c1C (stereo not shown) (as salt: salt) | 83 to 93 |  |

| SMILES | melting point [°C] | post synaptic current driven by the NMDA receptor (NMDA receptor) |
| --- | --- | --- |
| Cc1cnc(C(=O)c2ccc(OC(CCN(C)CC(=O)O)c3ccc(Cl)cc3)cc2)s1 (stereo not shown) (as salt: salt) | 182 to 192 |  |
| CN(CCC(Oc1ccc(C(=O)c2nccs2)cc1)c1ccc(Cl)cc1)CC(=O)O (stereo not shown) | 80 to 100 |  |
| Cc1cccc(C(=O)c2ccc(OC(CCN(C)CC(=O)O)c3ccc(F)cc3)cc2)c1 (stereo not shown) (as salt: salt) | 75 to 85 |  |
| CN(CCC(Oc1ccc(C(=O)c2ccccc2)cc1)c1ccc(F)cc1)CC(=O)O (stereo not shown) (as salt: salt) | 80 to 95 |  |
| CN(CCC(Oc1ccc(C(=O)c2ccc(C(F)(F)F)cc2)cc1)c1ccc(Cl)cc1)CC(=O)O (stereo not shown) (as salt: salt) | 63 to 70 |  |
| CN(CCC(Oc1ccc(C(=O)c2ccncc2)cc1)c1ccc(Cl)cc1)CC(=O)O (stereo not shown) | 72 to 82 |  |
| CN(CCC(Oc1ccc(C(=O)c2ccc(C(F)(F)F)cc2)cc1)c1ccc(F)cc1)CC(=O)O (stereo not shown) (as salt: salt) | 58 to 72 |  |
| CN(CCC(Oc1ccc(C(=O)c2cc(C(F)(F)F)cc(C(F)(F)F)c2)cc1)c1ccc(F)cc1)CC(=O)O (stereo not shown) | 60 to 75 |  |
| CN(CCC(Oc1ccc(-c2ccccc2)cc1)c1ccc(F)cc1)CC(=O)O (stereo not shown) [NFPS] |  | increased the post synaptic current driven by the NMDA receptor |
| CN(CCC(Oc1ccc(C(=O)c2ccc(F)cc2F)cc1)c1ccc(Cl)cc1)CC(=O)O (stereo not shown) (as salt: salt) | 75 to 85 |  |
| CN(CCC(Oc1ccc(S(=O)(=O)c2ccccc2)cc1)c1ccccc1)CC(=O)O (stereo not shown) (as salt: salt) | 95 to 100 |  |
| COc1ccc(C(=O)c2ccc(OC(CCN(C)CC(=O)O)c3ccc(Cl)cc3)cc2)cc1 (stereo not shown) (as salt: salt) | 60 to 70 |  |
| CN(CCC(Oc1ccc(C(=O)c2cc3ccccc3s2)cc1)c1ccc(F)cc1)CC(=O)O (stereo not shown) (as salt: salt) | 90 to 100 |  |
| COc1ccc(C(=O)c2ccc(OC(CCN(C)CC(=O)O)c3ccc(F)cc3)cc2)cc1 (stereo not shown) (as salt: salt) | 75 to 85 |  |
| CN(CCC(Oc1ccc(C(=O)c2ccsc2)cc1)c1ccc(Cl)cc1)CC(=O)O (stereo not shown) (as salt: salt) | 91 to 110 |  |
| CN(CCC(Oc1ccc(C(=O)c2ccc(F)cc2)cc1)c1ccccc1)CC(=O)O (stereo not shown) (as salt: salt) | 65 to 83 |  |
| CN(CCC(Oc1cccc(C(=O)c2ccncc2)c1)c1ccc(F)cc1)CC(=O)O (stereo not shown) | 60 to 70 |  |
| CN(CCC(Oc1ccc(C(=O)c2ccc3ccccc3c2)cc1)c1ccc(F)cc1)CC(=O)O (stereo not shown) (as salt: salt) | 87 to 97 |  |
| CN(CCC(Oc1ccc(C(=O)c2cc3ccccc3s2)cc1)c1ccc(Cl)cc1)CC(=O)O (stereo not shown) (as salt: salt) | 101 to 112 |  |
| CN(CCC(Oc1ccc(C(=O)c2nc3ccccc3s2)cc1)c1ccc(F)cc1)CC(=O)O (stereo not shown) (as salt: salt) | 105 to 111 |  |
| CN(CCC(Oc1ccc(C(=O)c2ccccc2F)cc1)c1ccc(Cl)cc1)CC(=O)O (stereo not shown) (as salt: salt) | 75 to 85 |  |
